Experimental data: patent publication US20240398811A1, “PRC2 INHIBITORS FOR USE IN TREATING BLOOD DISORDERS” (ORIC Pharmaceuticals, Inc., priority 2021, published 2024)

Biological target: purified human, His-tagged PRC2 complex (Homo sapiens (Human), UniProt O75530)
Experiment: Hot Spot HMT assay, inhibition of PRC2 enzymatic activity
Assay type: biochemical
Conditions: 10 nM PRC2 complex, 1 μM 3H-SAM, core histone H3, 10-point dose-response
Text: The assay uses purified human, His-tagged PRC2 complex, including N-terminal His-tagged EZH2 enzyme, N-terminal Flag-tagged embryonic ectoderm development protein (EED), N-terminal His-tagged suppressor of zeste 12 (SUZ12), N-terminal His-tagged AEBP2, and N-terminal His-tagged RbAp48. In this assay, the transfer of the tritiated methyl group from radiolabeled S-adenosyl methionine (SAM) to purified core histone protein by EZH2 is quantitated after filtration to determine the activity of the core PRC2 complex in the presence and absence of compound.
The initial starting concentration for the serial dilutions of each compound was 1.0 μM. […] SAH (S-(5-adenosyl)-L-homocysteine) was used as a positive control for assay validation.
An aliquot of each serial dilution of test compound was added to deep 384 well plate using Acoustic Technology instrument (Echo 550, LabCyte) containing reaction buffer (50 mM Tris-HCl (pH 8.)), 0.01% Brij35, 1 mM EDTA, 1 mM DTT, 1 mM PMSF and 1% DMSO), 10 nM purified PRC2 complex and 0.05 mg/ml core histone H3 in a 5 μl volume. The reaction was mixed gently and then pre-incubated for 20 min at 30° C. The enzymatic reaction was initiated by adding 1 μM S-Adenosyl-L-[methyl-^3H]methionine and incubated for 1 hr at 30° C. After 1 hr, the reaction product was detected using a filter binding method and the amount of tritiated H3 core histone was quantitated using a scintillation counter. […] Key: A=<100 nM; B=>100 nM-<500 nM; and C=>500 nM.

purified human, His-tagged PRC2 complex, sequence (O75530 whole entry): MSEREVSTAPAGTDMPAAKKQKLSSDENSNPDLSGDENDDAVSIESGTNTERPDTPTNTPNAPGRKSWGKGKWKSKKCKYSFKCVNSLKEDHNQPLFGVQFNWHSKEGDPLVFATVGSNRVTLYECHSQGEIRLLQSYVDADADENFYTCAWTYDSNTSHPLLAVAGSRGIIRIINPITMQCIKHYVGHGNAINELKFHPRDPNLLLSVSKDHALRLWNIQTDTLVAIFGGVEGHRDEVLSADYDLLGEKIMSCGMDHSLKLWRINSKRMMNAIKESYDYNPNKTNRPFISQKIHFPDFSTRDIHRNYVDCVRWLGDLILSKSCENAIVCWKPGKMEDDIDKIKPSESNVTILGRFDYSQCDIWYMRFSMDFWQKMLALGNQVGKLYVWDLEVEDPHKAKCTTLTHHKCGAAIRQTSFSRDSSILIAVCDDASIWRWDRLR
purified human, His-tagged PRC2 complex, sequence (Q15910 whole entry partner): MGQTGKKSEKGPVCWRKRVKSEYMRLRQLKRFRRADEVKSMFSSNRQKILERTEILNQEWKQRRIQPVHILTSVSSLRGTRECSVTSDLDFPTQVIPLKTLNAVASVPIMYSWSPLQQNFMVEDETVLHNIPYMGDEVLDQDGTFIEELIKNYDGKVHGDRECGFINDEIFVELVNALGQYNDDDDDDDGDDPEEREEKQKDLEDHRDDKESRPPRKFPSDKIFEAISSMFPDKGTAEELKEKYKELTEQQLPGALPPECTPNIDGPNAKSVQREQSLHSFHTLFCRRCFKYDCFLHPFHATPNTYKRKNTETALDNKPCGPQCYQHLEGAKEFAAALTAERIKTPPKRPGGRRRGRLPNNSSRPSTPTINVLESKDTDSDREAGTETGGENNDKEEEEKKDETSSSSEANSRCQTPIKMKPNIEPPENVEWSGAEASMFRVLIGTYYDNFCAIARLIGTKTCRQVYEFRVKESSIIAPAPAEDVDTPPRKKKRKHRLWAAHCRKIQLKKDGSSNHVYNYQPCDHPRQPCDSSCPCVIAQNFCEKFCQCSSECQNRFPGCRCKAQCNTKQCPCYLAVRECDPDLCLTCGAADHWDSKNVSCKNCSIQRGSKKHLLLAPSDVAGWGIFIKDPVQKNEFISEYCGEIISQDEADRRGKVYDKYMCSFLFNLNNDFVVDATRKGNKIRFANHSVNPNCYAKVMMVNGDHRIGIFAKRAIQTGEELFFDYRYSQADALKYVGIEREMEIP
purified human, His-tagged PRC2 complex, sequence (Q15022 whole entry partner): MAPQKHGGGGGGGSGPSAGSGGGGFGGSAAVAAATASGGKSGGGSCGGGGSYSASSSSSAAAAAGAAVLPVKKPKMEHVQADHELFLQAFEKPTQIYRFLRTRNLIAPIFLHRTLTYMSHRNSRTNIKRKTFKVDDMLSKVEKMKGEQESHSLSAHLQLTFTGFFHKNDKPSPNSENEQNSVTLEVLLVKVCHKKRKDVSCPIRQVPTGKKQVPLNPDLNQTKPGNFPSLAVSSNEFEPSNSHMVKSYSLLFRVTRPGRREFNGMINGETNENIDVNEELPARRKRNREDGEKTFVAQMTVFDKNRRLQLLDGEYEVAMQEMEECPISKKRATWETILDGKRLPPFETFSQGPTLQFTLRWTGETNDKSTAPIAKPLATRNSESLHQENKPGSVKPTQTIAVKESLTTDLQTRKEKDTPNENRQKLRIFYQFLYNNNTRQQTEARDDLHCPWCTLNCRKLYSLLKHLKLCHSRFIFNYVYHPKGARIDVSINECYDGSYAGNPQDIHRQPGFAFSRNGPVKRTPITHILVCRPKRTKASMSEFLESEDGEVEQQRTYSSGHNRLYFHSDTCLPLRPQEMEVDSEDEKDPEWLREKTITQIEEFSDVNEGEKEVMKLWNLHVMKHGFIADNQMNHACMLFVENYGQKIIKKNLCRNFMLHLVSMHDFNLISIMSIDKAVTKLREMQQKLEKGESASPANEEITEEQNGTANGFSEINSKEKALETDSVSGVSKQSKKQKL
purified human, His-tagged PRC2 complex, sequence (Q6ZN18 whole entry partner): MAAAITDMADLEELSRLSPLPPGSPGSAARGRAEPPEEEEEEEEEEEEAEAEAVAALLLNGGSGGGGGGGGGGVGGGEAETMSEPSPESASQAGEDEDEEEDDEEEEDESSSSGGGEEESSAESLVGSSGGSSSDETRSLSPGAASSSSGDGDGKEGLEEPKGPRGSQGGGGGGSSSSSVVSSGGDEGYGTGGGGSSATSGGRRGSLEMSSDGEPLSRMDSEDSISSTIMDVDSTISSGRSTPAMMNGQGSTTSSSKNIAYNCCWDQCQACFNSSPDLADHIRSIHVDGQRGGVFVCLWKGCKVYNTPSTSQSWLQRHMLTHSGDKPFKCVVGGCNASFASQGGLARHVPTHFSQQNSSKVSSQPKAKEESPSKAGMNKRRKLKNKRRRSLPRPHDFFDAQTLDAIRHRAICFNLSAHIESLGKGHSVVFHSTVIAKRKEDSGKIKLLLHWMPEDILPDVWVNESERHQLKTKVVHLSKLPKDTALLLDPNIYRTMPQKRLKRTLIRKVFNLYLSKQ
purified human, His-tagged PRC2 complex, sequence (Q09028 whole entry partner): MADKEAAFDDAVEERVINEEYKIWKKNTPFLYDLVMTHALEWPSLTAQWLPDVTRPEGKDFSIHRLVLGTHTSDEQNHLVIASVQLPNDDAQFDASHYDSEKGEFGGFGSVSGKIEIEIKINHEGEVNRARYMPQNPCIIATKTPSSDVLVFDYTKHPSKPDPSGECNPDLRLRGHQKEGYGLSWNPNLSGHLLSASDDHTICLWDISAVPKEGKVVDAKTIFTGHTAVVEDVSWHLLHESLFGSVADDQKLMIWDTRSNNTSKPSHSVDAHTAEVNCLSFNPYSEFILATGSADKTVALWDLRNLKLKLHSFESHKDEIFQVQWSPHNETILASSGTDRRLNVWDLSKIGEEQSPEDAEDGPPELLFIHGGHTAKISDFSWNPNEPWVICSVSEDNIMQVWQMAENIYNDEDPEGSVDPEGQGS

Compound	IC50
CN(C)Cc1ccc(-c2cnc(NCc3c(F)ccc4c3CCO4)n3cc(C#N)nc23)c(Cl)c1 [Example 33, 8-(2-chloro-4-((dimethylamino)methyl)phenyl)-5-(((5-fluoro-2,3-dihydrobenzofuran-4-yl)methyl)amino)imidazo[1,2-c]pyrimidine-2-carbonitrile]	< 0.1 µM
CN(C)Cc1ccc(-c2cnc(NCc3c(F)ccc4c3CCO4)n3cc(C#N)nc23)c(F)c1F [Example 37, 8-(4-((dimethylamino)methyl)-2,3-difluorophenyl)-5-(((5-fluoro-2,3-dihydrobenzofuran-4-yl)methyl)amino)imidazo[1,2-c]pyrimidine-2-carbonitrile]	< 0.1 µM
CN(C)Cc1ncc(-c2cnc(NCc3c(F)ccc4c3CCO4)n3cc(C#N)nc23)cc1F [Example 40, 8-(6-((dimethylamino)methyl)-5-fluoropyridin-3-yl)-5-(((5-fluoro-2,3-dihydrobenzofuran-4-yl)methyl)amino)imidazo[1,2-c]pyrimidine-2-carbonitrile]	< 0.1 µM
Cc1cc(-c2cnc(NCc3c(F)ccc4c3CCO4)n3cc(C#N)nc23)cnn1 [Example 41, 5-(((5-fluoro-2,3-dihydrobenzofuran-4-yl)methyl)amino)-8-(6-methylpyridazin-4-yl)imidazo[1,2-c]pyrimidine-2-carbonitrile]	< 0.1 µM
N#Cc1cn2c(NCc3c(F)ccc4c3CCO4)ncc(-c3ccccc3)c2n1 [Example 46, 5-(((5-fluoro-2,3-dihydrobenzofuran-4-yl)methyl)amino)-8-phenylimidazo[1,2-c]pyrimidine-2-carbonitrile]	< 0.1 µM
N#Cc1cn2c(NCc3c(F)ccc4c3CCO4)ncc(-c3ccc(S(N)(=O)=O)cc3)c2n1 [Example 47, 4-(2-cyano-5-(((5-fluoro-2,3-dihydrobenzofuran-4-yl)methyl)amino)imidazo[1,2-c]pyrimidin-8-yl)benzenesulfonamide]	< 0.1 µM
Cc1cc(S(=O)(=O)N(C)C)ccc1-c1cnc(NCc2c(F)ccc3c2CCO3)n2cc(C#N)nc12 [Example 48, 4-(2-cyano-5-(((5-fluoro-2,3-dihydrobenzofuran-4-yl)methyl)amino)imidazo[1,2-c]pyrimidin-8-yl)-N,N,3-trimethylbenzenesulfonamide]	< 0.1 µM
N#Cc1cn2c(NCc3c(F)ccc4c3CCO4)ncc(-c3ccc(CN4CCCC4=O)cc3)c2n1 [Example 49, 5-(((5-fluoro-2,3-dihydrobenzofuran-4-yl)methyl)amino)-8-(4-((2-oxopyrrolidin-1-yl)methyl)phenyl)imidazo[1,2-c]pyrimidine-2-carbonitrile]	< 0.1 µM
COC1CN(Cc2ccc(-c3cnc(NCc4c(F)ccc5c4CCO5)n4cc(C#N)nc34)cc2)C1 [Example 50, 5-(((5-fluoro-2,3-dihydrobenzofuran-4-yl)methyl)amino)-8-(4-((3-methoxyazetidin-1-yl)methyl)phenyl)imidazo[1,2-c]pyrimidine-2-carbonitrile]	< 0.1 µM
N#Cc1cn2c(NCc3c(F)ccc4c3CCO4)ncc(-c3ccc(CN4CC(F)(F)C4)cc3)c2n1 [Example 51, 8-(4-((3,3-difluoroazetidin-1-yl)methyl)phenyl)-5-(((5-fluoro-2,3-dihydrobenzofuran-4-yl)methyl)amino)imidazo[1,2-c]pyrimidine-2-carbonitrile]	< 0.1 µM
N#Cc1cn2c(NCc3c(F)ccc4c3CCO4)ncc(-c3ccc(CN4CC5CC5C4)cc3)c2n1 (stereo not drawn) [Example 52, 8-(4-((3-azabicyclo[3.1.0]hexan-3-yl)methyl)phenyl)-5-(((5-fluoro-2,3-dihydrobenzofuran-4-yl)methyl)amino)imidazo[1,2-c]pyrimidine-2-carbonitrile]	< 0.1 µM
COC1CCN(Cc2ccc(-c3cnc(NCc4c(F)ccc5c4CCO5)n4cc(C#N)nc34)cc2)C1 (stereo not drawn) [Example 53, 5-(((5-fluoro-2,3-dihydrobenzofuran-4-yl)methyl)amino)-8-(4-((3-methoxypyrrolidin-1-yl)methyl)phenyl)imidazo[1,2-c]pyrimidine-2-carbonitrile]	< 0.1 µM
N#Cc1cn2c(NCc3c(F)ccc4c3CCO4)ncc(-c3ccc(CN4CCC(F)C4)cc3)c2n1 (stereo not drawn) [Example 54, 5-(((5-fluoro-2,3-dihydrobenzofuran-4-yl)methyl)amino)-8-(4-((3-fluoropyrrolidin-1-yl)methyl)phenyl)imidazo[1,2-c]pyrimidine-2-carbonitrile]	< 0.1 µM
N#Cc1cn2c(NCc3c(F)ccc4c3CCO4)ncc(-c3ccc(CN4CCC(F)(F)C4)cc3)c2n1 [Example 55, 8-(4-((3,3-difluoropyrrolidin-1-yl)methyl)phenyl)-5-(((5-fluoro-2,3-dihydrobenzofuran-4-yl)methyl)amino)imidazo[1,2-c]pyrimidine-2-carbonitrile]	< 0.1 µM
Cc1nc(N2CCOCC2)ccc1-c1cnc(NCc2c(F)ccc3c2CCO3)n2cc(C#N)nc12 [Example 56, 5-(((5-fluoro-2,3-dihydrobenzofuran-4-yl)methyl)amino)-8-(2-methyl-6-morpholinopyridin-3-yl)imidazo[1,2-c]pyrimidine-2-carbonitrile]	< 0.1 µM
N#Cc1cn2c(NCc3c(F)ccc4c3CCO4)ncc(-c3ccncn3)c2n1 [Example 57, 5-(((5-fluoro-2,3-dihydrobenzofuran-4-yl)methyl)amino)-8-(pyrimidin-4-yl)imidazo[1,2-c]pyrimidine-2-carbonitrile]	< 0.1 µM
CN(C)S(=O)(=O)c1ccc(-c2cnc(NCc3c(F)ccc4c3CCO4)n3cc(C#N)nc23)cc1 [Example 58, 4-(2-cyano-5-(((5-fluoro-2,3-dihydrobenzofuran-4-yl)methyl)amino)imidazo[1,2-c]pyrimidin-8-yl)-N,N-dimethylbenzenesulfonamide]	< 0.1 µM

Second part, the compound after the results:

IC50	Compound
< 0.1 µM	CN(C)C(=O)c1ccc(-c2cnc(NCc3c(F)ccc4c3CCO4)n3cc(C#N)nc23)c(Cl)c1 [Example 31, 3-chloro-4-(2-cyano-5-(((5-fluoro-2,3-dihydrobenzofuran-4-yl)methyl)amino)imidazo[1,2-c]pyrimidin-8-yl)-N,N-dimethylbenzamide]
< 0.1 µM	CN(C)C(=O)c1ccc(-c2cnc(NCc3c(F)ccc4c3CCO4)n3cc(C#N)nc23)c(Cl)c1F [Example 34, 3-chloro-4-(2-cyano-5-(((5-fluoro-2,3-dihydrobenzofuran-4-yl)methyl)amino)imidazo[1,2-c]pyrimidin-8-yl)-2-fluoro-N,N-dimethylbenzamide]
< 0.1 µM	CN(C)C(=O)c1cc(Cl)c(-c2cnc(NCc3c(F)ccc4c3CCO4)n3cc(C#N)nc23)cc1F [Example 35, 5-chloro-4-(2-cyano-5-(((5-fluoro-2,3-dihydrobenzofuran-4-yl)methyl)amino)imidazo[1,2-c]pyrimidin-8-yl)-2-fluoro-N,N-dimethylbenzamide]
< 0.1 µM	CN(C)C(=O)c1ccc(-c2cnc(NCc3c(F)ccc4c3CCO4)n3cc(C#N)nc23)cc1F [Example 36, 4-(2-cyano-5-(((5-fluoro-2,3-dihydrobenzofuran-4-yl)methyl)amino)imidazo[1,2-c]pyrimidin-8-yl)-2-fluoro-N,N-dimethylbenzamide]
< 0.1 µM	CN(C)C(=O)c1cc(F)c(-c2cnc(NCc3c(F)ccc4c3CCO4)n3cc(C#N)nc23)cc1F [Example 38, 4-(2-cyano-5-(((5-fluoro-2,3-dihydrobenzofuran-4-yl)methyl)amino)imidazo[1,2-c]pyrimidin-8-yl)-2,5-difluoro-N,N-dimethylbenzamide]
< 0.1 µM	CN(C)Cc1cc(F)c(-c2cnc(NCc3c(F)ccc4c3CCO4)n3cc(C#N)nc23)cc1F [Example 39, 8-(4-((dimethylamino)methyl)-2,5-difluorophenyl)-5-(((5-fluoro-2,3-dihydrobenzofuran-4-yl)methyl)amino)imidazo[1,2-c]pyrimidine-2-carbonitrile]
< 0.1 µM	CN(C)C(=O)c1ccc(-c2cnc(NCc3c(F)ccc4c3CCO4)n3cc(C#N)nc23)c(F)c1F [Example 42, 4-(2-cyano-5-(((5-fluoro-2,3-dihydrobenzofuran-4-yl)methyl)amino)imidazo[1,2-c]pyrimidin-8-yl)-2,3-difluoro-N,N-dimethylbenzamide]
< 0.1 µM	Cc1cc(C(=O)N(C)C)c(F)cc1-c1cnc(NCc2c(F)ccc3c2CCO3)n2cc(C#N)nc12 [Example 43, 4-(2-cyano-5-(((5-fluoro-2,3-dihydrobenzofuran-4-yl)methyl)amino)imidazo[1,2-c]pyrimidin-8-yl)-2-fluoro-N,N,5-trimethylbenzamide]
< 0.1 µM	Cc1cc(C(=O)N(C)C)ccc1-c1cnc(NCc2c(F)ccc3c2CCO3)n2cc(C#N)nc12 [Example 44, 4-(2-cyano-5-(((5-fluoro-2,3-dihydrobenzofuran-4-yl)methyl)amino)imidazo[1,2-c]pyrimidin-8-yl)-N,N,3-trimethylbenzamide]
< 0.1 µM	CN(C)C(=O)c1c(F)cc(-c2cnc(NCc3c(F)ccc4c3CCO4)n3cc(C#N)nc23)cc1F [Example 45, 4-(2-cyano-5-(((5-fluoro-2,3-dihydrobenzofuran-4-yl)methyl)amino)imidazo[1,2-c]pyrimidin-8-yl)-2,6-difluoro-N,N-dimethylbenzamide]
